Calls of active or inactive are those of the source.
Key:
HEK293 = assay: cells; settings: Homo sapiens;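 also: cells exposed to compound for 14 hours overnight before viability readout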
Tumor necrosis factor = Tumor necrosis factor (Homo sapiens, UniProt P01375); assay: analog potency on TNFa NF-kB signaling – cell-based, revised, SAR follow-up (AID 2337); type: functional
[1] = Luminescence Cell-Based Dose Retest to Confirm Inhibitors of Cancer Stem Cells. [Related pubchem assays (depositor defined):AID2717, AID2721]; type: functional; settings: Homo sapiens
[2] = viability loss of HMLE_sh_eGFP cells – cell-based, luminescence, counter-screen for HMLE_sh_ECad selective toxicity project, dose response (AID 463074); type: functional, Homo sapiens;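 also: HMLE human mammary epithelial cells expressing control shRNA against eGFP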
[3] = microbe, parasite or virus in culture; type: functional; settings: Mycobacterium tuberculosis
[4] = Trypanosoma cruzi growth suppression in host cells – NIH3T3 host cells, beta-gal luminescence, confirmation (AID 2044); type: functional, cell-based;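 also: intracellular parasites grown in NIH/3T3 mouse fibroblasts as host cells; luminescent beta-galactosidase reporter signal from transgenic T. cruzi replicating inside host cells; inhibitors lower the luminescence signal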
[5] = NIH3T3 cell viability loss – ATP luminescence, mouse fibroblasts, counter-screen, dose response (AID 2010); type: functional, cell-based;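 also: cells exposed to compound for about 90 hours before reading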
Cytochrome P450 2D6 = Cytochrome P450 2D6 (Homo sapiens, UniProt P10635);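 also: CYP2D6 member of a cytochrome P450 panel assay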
Chain of Cytochrome P450 2D6 (P10635 whole entry): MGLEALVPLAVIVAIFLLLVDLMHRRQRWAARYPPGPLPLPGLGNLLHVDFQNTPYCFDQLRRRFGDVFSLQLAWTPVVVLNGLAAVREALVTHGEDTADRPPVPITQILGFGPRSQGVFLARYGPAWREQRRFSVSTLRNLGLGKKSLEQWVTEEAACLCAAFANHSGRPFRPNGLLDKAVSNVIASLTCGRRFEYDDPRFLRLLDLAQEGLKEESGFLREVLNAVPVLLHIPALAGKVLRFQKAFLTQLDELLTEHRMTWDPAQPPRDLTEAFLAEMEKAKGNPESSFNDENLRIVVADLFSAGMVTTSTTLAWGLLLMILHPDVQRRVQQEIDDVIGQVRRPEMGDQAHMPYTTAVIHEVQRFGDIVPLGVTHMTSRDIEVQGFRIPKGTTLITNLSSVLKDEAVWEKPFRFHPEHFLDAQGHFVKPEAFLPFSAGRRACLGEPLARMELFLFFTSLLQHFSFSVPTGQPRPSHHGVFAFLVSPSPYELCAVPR

Cytochrome P450 2C19 = Cytochrome P450 2C19 (Homo sapiens, UniProt P33261); assay: Cytochrome panel assay with activity outcomes. Panel member name: p450-cyp2c19 Compounds with AC50 equal or less than 10 uM are considered active; type: functional
Chain of Cytochrome P450 2C19 (P33261 whole entry): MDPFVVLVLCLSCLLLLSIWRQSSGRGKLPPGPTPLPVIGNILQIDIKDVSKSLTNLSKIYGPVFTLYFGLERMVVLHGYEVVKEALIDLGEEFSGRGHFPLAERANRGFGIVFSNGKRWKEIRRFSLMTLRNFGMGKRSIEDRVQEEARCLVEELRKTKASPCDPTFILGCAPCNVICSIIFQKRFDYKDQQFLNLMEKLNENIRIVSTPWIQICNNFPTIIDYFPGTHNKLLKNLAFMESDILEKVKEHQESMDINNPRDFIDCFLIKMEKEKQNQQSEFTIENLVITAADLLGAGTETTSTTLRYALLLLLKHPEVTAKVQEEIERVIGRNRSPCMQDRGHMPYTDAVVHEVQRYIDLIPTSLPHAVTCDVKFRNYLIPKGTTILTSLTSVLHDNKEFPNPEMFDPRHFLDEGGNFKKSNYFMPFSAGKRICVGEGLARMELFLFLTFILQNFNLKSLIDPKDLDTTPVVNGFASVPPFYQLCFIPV

[6] = target: Intestinal-type alkaline phosphatase (Homo sapiens, UniProt P09923); assay: inhibition of human intestinal alkaline phosphatase – biochemical, dose response (AID 488876); type: functional
Chain of Intestinal-type alkaline phosphatase (Homo sapiens, UniProt P09923) (P09923 whole entry): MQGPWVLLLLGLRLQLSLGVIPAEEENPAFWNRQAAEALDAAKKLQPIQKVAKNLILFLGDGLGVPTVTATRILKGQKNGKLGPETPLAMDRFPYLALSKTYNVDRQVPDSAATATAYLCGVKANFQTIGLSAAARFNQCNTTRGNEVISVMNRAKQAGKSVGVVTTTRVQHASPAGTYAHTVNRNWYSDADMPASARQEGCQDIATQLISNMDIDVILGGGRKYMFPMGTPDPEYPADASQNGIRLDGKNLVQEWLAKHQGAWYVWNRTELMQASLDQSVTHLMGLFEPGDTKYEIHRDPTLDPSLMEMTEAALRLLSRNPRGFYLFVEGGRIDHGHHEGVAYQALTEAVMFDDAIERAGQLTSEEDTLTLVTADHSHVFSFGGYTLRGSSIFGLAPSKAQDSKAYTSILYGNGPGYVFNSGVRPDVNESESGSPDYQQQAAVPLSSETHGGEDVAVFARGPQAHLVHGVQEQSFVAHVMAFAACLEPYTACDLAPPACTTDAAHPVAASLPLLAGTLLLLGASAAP

[7] = target: T1, Tyrosine-protein phosphatase non-receptor type 22 (Homo sapiens, UniProt Q9Y2R2); type: functional
T1 sequence (Q9Y2R2 whole entry): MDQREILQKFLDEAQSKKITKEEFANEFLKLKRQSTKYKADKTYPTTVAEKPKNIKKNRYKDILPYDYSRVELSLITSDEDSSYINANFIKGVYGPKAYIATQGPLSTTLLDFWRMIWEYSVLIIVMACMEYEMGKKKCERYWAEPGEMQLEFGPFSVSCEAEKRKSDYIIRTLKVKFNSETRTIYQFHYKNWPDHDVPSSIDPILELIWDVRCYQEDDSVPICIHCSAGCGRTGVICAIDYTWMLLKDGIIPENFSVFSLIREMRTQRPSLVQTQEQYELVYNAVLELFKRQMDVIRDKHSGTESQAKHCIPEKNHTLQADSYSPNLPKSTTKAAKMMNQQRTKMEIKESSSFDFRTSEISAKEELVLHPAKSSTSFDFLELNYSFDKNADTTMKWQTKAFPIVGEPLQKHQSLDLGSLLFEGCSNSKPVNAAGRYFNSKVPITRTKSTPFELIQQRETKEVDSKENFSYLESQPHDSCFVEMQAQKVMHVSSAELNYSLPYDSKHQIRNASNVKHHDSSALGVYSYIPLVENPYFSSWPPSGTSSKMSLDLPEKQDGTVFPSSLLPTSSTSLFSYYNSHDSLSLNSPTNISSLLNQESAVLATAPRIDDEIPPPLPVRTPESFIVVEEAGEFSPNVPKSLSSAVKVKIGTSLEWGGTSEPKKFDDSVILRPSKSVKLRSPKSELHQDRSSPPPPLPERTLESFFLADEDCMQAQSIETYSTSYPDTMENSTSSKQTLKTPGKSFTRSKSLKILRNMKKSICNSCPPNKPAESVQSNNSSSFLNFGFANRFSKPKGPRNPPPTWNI

[8] = target: T2, Tyrosine-protein phosphatase non-receptor type 7 (Homo sapiens, UniProt P35236); type: functional
T2 sequence (P35236 whole entry): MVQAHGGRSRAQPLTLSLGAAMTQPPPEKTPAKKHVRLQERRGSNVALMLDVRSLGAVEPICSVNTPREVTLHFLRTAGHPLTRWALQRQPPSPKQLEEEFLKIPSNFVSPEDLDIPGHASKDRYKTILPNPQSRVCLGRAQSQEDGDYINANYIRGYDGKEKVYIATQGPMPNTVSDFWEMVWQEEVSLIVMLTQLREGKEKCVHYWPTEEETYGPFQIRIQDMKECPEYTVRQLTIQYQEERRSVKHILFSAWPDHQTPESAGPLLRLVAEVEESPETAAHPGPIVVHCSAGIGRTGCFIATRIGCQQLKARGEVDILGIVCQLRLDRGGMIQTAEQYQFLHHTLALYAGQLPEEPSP

[9] = target: Intestinal-type alkaline phosphatase (Mus musculus, UniProt P24822); assay: PubChem AID 488785; type: functional
Chain of Intestinal-type alkaline phosphatase (Mus musculus, UniProt P24822) (P24822 whole entry): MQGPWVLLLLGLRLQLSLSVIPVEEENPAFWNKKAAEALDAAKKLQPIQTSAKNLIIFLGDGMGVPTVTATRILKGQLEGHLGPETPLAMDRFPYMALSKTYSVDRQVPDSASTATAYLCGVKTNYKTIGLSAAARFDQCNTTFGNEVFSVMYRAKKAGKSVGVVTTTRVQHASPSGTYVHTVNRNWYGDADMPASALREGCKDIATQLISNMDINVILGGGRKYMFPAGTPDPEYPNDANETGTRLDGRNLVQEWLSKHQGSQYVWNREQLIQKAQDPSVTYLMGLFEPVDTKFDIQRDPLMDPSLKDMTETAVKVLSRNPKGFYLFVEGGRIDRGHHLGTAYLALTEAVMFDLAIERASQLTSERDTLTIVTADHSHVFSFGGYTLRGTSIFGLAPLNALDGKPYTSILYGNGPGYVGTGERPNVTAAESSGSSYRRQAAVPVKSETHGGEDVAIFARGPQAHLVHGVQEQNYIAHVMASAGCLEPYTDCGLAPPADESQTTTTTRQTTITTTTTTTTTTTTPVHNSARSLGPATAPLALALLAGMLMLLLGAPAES

[10] = target: T3, Alkaline phosphatase, tissue-nonspecific isozyme (Homo sapiens, UniProt P05186); assay: TNAP enzyme inhibition by screening hits, dose response, selectivity assay for mouse IAP inhibitor project, biochemical, human TNAP, uHTS hits (AID 488906); type: functional
T3 sequence (P05186 whole entry): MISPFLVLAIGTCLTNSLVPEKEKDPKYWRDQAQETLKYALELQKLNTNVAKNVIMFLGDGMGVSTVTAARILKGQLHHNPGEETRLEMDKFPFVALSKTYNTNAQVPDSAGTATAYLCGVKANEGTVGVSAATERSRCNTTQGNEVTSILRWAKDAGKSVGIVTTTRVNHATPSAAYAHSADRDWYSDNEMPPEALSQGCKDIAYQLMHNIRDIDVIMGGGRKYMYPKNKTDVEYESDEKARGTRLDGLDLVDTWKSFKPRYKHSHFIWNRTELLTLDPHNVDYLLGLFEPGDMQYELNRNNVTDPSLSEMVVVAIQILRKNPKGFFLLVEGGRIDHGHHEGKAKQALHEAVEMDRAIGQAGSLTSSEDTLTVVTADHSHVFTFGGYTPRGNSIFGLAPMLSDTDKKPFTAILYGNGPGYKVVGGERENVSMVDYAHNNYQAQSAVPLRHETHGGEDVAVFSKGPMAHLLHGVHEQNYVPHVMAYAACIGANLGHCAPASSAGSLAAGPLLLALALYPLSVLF

[11] = target: T1, Tyrosine-protein phosphatase non-receptor type 22; type: functional; remark: listed apart in the source

Chain of Tumor necrosis factor (P01375 whole entry): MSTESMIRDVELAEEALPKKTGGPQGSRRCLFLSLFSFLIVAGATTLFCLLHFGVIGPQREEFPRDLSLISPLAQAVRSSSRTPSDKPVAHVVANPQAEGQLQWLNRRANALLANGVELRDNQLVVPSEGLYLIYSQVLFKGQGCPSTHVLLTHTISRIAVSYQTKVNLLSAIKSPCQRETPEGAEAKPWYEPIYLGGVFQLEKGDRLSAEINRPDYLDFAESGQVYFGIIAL

In the case of CCOc1ccc(NC(=O)c2ccc(CN3CCCCC3)cc2)cc1, the IC50 (HEK293) was > 20 µM (inactive) and the IC50 (Tumor necrosis factor) was > 20 µM (inactive).
With CN(C)S(=O)(=O)c1cccc(NC(=O)CSc2cccc3cccnc23)c1 the AC50 [1] was 12.6 µM (active), the AC50 [2] was 36.2 µM (active) and the CC50 [3] was > 40 µM (active). The EC50 [4] was 0.802 µM (active) and the EC50 [5] was 4.3 µM (active).
For Cl.N=C(N)N/N=C\c1cnn(C(=N)N)c1, the AC50 (Cytochrome P450 2D6) was “inconclusive”.
For O=C(O)CCCc1ccc2ccc3ccccc3c2c1, the AC50 (Cytochrome P450 2C19) was “inconclusive” and the AC50 (Cytochrome P450 2D6) was “inconclusive”.
In the case of S=C(NCc1ccc(Cl)cc1Cl)NC1CCCCC1, the IC50 [6] was 29.2 µM (active), the IC50 [7] was > 79.4 µM (inactive) and the IC50 [8] was > 79.4 µM (inactive). The IC50 [9] was 6.56 µM (active), the IC50 [10] was 87.6 µM (active) and the IC50 [11] was > 79.4 µM (inactive).

— ChEMBL document CHEMBL1201862, “PubChem BioAssay data set” (2004)
